From patent US10064837B1, “Abietic acid derivatives as anti-tumor agents” (KING SAUD UNIVERSITY, priority 2018, dated 2018) come the findings set out here.

SMILES strings stand for the structures. Bounds are passed on as bounds.

The subject of series [1] is prostate cancer cell line PC3. As to the kind of experiment: Anti-prostate cancer screening, anti-androgenic bioassay (wild type AR transactivation, MMTV-luciferase) in PC-3 cells. Particulars: PC-3 cells transfected with wild type AR, 1 nM DHT, 24 h, mean of three separate experiments. The series is classed as cell-based, Human. The procedure: (§1) Human prostate cancer cell lines LNCaP and PC-3 were maintained in RPMI 1640 medium and DMEM medium, respectively. Both media were supplemented with penicillin (25 units/mL), streptomycin (25 μg/mL), and 10% fetal calf serum. For the androgen receptor transactivation assay, an androgen-dependent reporter gene transcription test was employed as the primary screening for potential anti-androgen identification. This assay was first performed in LNCaP cells, which express a clinically relevant mutant AR.
Wild type AR transactivation assay was performed in PC-3 host cells, which lack an endogenous, functional AR.
(§2) Cells were plated in 24-well tissue culture dishes for 24 hours (PC-3 cells) or 48 hours (LNCaP cells) prior to transfection. Subsequently, LNCaP cells were transfected with a reporter gene, MMTV-luciferase, which contains MMTV-LTR promoter and androgen receptor binding element, and PRL-SV40, which served as an internal control for transfection efficiency. PC-3 cells were transfected with a wild type AR expression plasmid, pSG5AR, in addition to the aforementioned MMTV-luciferase reporter gene and PRL-SV40 internal control. SuperFect (Qiagen, Chatsworth, Calif.) was employed as the transfection reagent following manufacturer's recommendations.
(§3) At the end of a 5-hour transfection period, the medium was changed to DMEM or RPMI 1640 medium, supplemented with 10% charcoal dextran-stripped (that is, androgen-depleted) serum. After 24 h, the cells were treated with 1 nM of DHT and/or test compounds at the designated concentration for another 24 h. The cells were harvested for luciferase activity assay using the Dual Luciferase Assay System (Promega, Madison, Wis.).
The derived data were expressed as relative luciferase activity normalized to the internal luciferase control. […] The results are reported in Table 3, and reflected in FIGS. 4 and 5.

Series [2] addresses rat prostate testosterone 5α-reductase. As to the kind of experiment: In vitro 5α-reductase inhibitor enzymatic assay (rat ventral prostate homogenate, [3H]testosterone conversion). The series is classed as biochemical. Particulars: pH 6.5, 37° C., 30 min, mean of three separate experiments. The procedure: A homogenate of the ventral prostate gland of male Sprague-Dawley rats was prepared, and testosterone 5α-reductase inhibition was measured using the methods previously reported in Iwai, A., et al., “Spectrophotometric Method for the Assay of Steroid 5α-reductase activity of rat liver and prostate microsomes”, Analytical Sciences 2013, 29: 455-459. Both the type 1 and the type 2 isozymes are present in the ventral prostate of the rat. In the assay, rat prostate extracts were used in a neutral pH buffer, and both isozymes were assayed.
The ventral prostate glands were excised and minced with a pair of scissors. The 20 w/v % homogenates were prepared with a glass-glass homogenizer in medium A (sucrose 0.32 M, dithiothreitol 0.1 mM, and sodium phosphate 20 mM, pH 6.5). The homogenate was filtered with surgical gauze and then centrifuged at 3000×g for 10 min. The pellets were suspended in medium A at a protein concentration of 20 mg/ml by triturating sequentially through an 18-gauge needle, and then a 20-gauge needle.
To 40 μl of the enzyme suspension, 10 μl of test sample in ethanol or ethanol alone and a mixture containing 0.525 ml of reaction solution consisting of dithiothreitol 1 mM, sodium phosphate 40 mM, pH 6.5, NADPH 5×10^−5 M, and [1,2,6,7^−3H]testosterone 2.2×10^−9 M were added. The assay mixture was incubated at 37° C. for 30 min. The reaction was stopped by the addition of 1 ml of ethyl acetate, and 50 μl of the upper phase was separated on a silica gel plate in the developing solvent system of ethyl acetate/cyclohexane, at a ratio of 1:1. The zones corresponding to the testosterone and 5α-dihydrotestosterone were cut into fragments. Each fragment was added to 5 ml of Aquasol-2 and counted with a liquid scintillation counter to determine ^3H radioactivity.
The inhibitory activity of each test sample was calculated as follows: Rate of enzyme reaction (R,%)=D/(T+D)×100 Inhibitory activity (%)=(1−Rsample/Rcontrol)×100 where D and T are the ^3H radioactivity recovered. The results are reported in Table 1, and reflected in FIG. 2.

Series [3] deals with prostate cancer cell line LNCaP. As to the kind of experiment: Anti-prostate cancer screening, anti-androgenic bioassay (AR transactivation, MMTV-luciferase) in LNCaP cells. In kind it is cell-based, Human. Particulars: 1 nM DHT, 24 h, mean of three separate experiments. The procedure: as §1, §2, §3
The derived data were expressed as relative luciferase activity normalized to the internal luciferase control. Cells cultured in medium containing DHT (androgen), as a positive control, induced a marked reporter gene expression. […] The results are reported in Table 3, and reflected in FIGS. 4 and 5.

Series [4] concerns 5α-reductase. As to the kind of experiment: In vivo 5α-reductase inhibitor biological assay. Also noted: species or system male Sprague-Dawley rats. Particulars: rats treated subcutaneously from postnatal third day until seven weeks; mean of three separate experiments.

A word on the melting point: it is the temperature, or range, at which the solid turns liquid. The IC50 is the concentration that inhibits the measured activity by half. Higher therefore signals a need for much substance. Turning to `CC(C)C1=CC2=CCC3C4(C)CC(CC3(C)C2CC1)OC4=O` (centres unmarked) [Compound 2, Abieta-7, 13-dien-18-oic acid (18→2) lactone], the melting point is 227 to 229 °C. Also, half-maximal inhibition in series [1] (Homo sapiens) (IC50) required 45.7 ± 1.09 nM. Further, half-maximal inhibition in series [2] (IC50) was put at 0.34 ± 0.06 nM. Moreover, in series [3] (Homo sapiens), it took 4.22 ± 0.03 nM to reach half-maximal inhibition (IC50). The “ED50 of the 5α-reductase inhibitors activities” value in series [4] was found to be 64 ± 0.76 nM.

With `CC(C)(C)NC(=O)[C@H]1CC[C@H]2[C@@H]3CC[C@H]4NC(=O)C=C[C@]4(C)[C@H]3CC[C@]12C` [Finasteride, finasteride, reference compound], the figures for the IC50 in series [2] and in series [3] (Homo sapiens) were 60 ± 1.2 nM and above 100000 nM, respectively. For the same molecule, the “ED50 of the 5α-reductase inhibitors activities” value in series [4] was found to be 170 ± 7.9 nM.

For the molecule `CC(C)C1=CC2=CC(O)C3C(C)(C(=O)Nc4ccccc4)CCCC3(C)C2CC1` (centres unmarked) [Compound 5c, Phenyl-6-hydroxy-abieta-7,13-dien-18-carboxamide], the values for the concentration for half-maximal inhibition (IC50) in series [1] (Homo sapiens), in series [2] and in series [3] (Homo sapiens) were 66.2 ± 2.3 nM, 0.68 ± 0.08 nM and 5.78 ± 0.03 nM, respectively. Moreover, the “ED50 of the 5α-reductase inhibitors activities” value in series [4] came out at 71 ± 0.74 nM.

In the case of `CC(C)C1=CC2=CCC3C(C)(C(=O)Sc4ccccc4)CC(O)CC3(C)C2CC1` (centres unmarked) [Compound 4b, Phenyl-2-hydroxy-abieta-7,13-dien-18-thioate], the figures for the IC50 in series [1], in series [2] and in series [3] were 26.4 ± 1.8 nM, 0.29 ± 0.01 nM and 3.58 ± 0.02 nM, respectively. In addition, the “ED50 of the 5α-reductase inhibitors activities” value in series [4] is 45 ± 0.57 nM.

As for `CC(C)C1=CC2=CCC3C(C)(C(=O)Oc4ccccc4)CC(O)CC3(C)C2CC1` (centres unmarked) [Compound 4a, Phenyl-2-hydroxy-abieta-7,13-dien-18-oate], the IC50 in series [1] (Homo sapiens) was found to be 18.2 ± 11 nM; in series [2], 0.22 ± 0.03 nM; in series [3] (Homo sapiens), 3.24 ± 0.04 nM. Moreover, the “ED50 of the 5α-reductase inhibitors activities” value in series [4] is 44 ± 0.65 nM.

Turning to `CC(C)(C#N)c1cc(Cn2cncn2)cc(C(C)(C)C#N)c1` [Anastrozole, anastrozole, reference compound], the midpoint of inhibition in series [2], the IC50, lay at 11230 ± 23 nM. Also, the “ED50 of the 5α-reductase inhibitors activities” value in series [4] was 1090 ± 3.4 nM.

Molecule `CC(C)C1=CC2=CC[C@@H]3[C@](C)(CCC[C@@]3(C)C(=O)O)[C@H]2CC1` [Abietic acid] had a concentration for half-maximal inhibition (IC50) in series [2] of 56000 ± 22000 nM. Further, the “ED50 of the 5α-reductase inhibitors activities” value in series [4] is 8800 ± 87 nM.

With `CC(C)C1=CC2=CC(O)C3C(C)(C(=O)Oc4ccccc4)CCCC3(C)C2CC1` (centres unmarked) [Compound 5a, Phenyl-6-hydroxy-abieta-7,13-dien-18-oate], the concentration for half-maximal inhibition (IC50) in series [1] (Homo sapiens) came to 71.2 ± 3.6 nM; in series [2], 0.74 ± 0.06 nM; in series [3] (Homo sapiens), 6.21 ± 0.04 nM. Further, the “ED50 of the 5α-reductase inhibitors activities” value in series [4] stood at 76 ± 0.89 nM.

On to `CC(C)C1=CC2=CC(O)C3C(C)(C(=O)Sc4ccccc4)CCCC3(C)C2CC1` (centres unmarked) [Compound 5b, Phenyl-6-hydroxy-abieta-7,13-dien-18-thioate], for which the results for the concentration for half-maximal inhibition (IC50) in series [1] (Homo sapiens), in series [2] and in series [3] (Homo sapiens) were 83.5 ± 2.3 nM, 0.88 ± 0.07 nM and 7.8 ± 0.09 nM, respectively. Moreover, the “ED50 of the 5α-reductase inhibitors activities” value in series [4] came to 88 ± 0.89 nM.

As to `CC(C)C1=CC2=CCC3C(C)(C(=O)Nc4ccccc4)CC(O)CC3(C)C2CC1` (centres unmarked) [Compound 4c, Phenyl-2-hydroxy-abieta-7,13-dien-18-carboxamide], the results for the half-maximal inhibitory concentration (IC50) in series [1] (Homo sapiens), in series [2] and in series [3] (Homo sapiens) were 11.14 ± 0.09 nM, 0.19 ± 0.02 nM and 2.33 ± 0.05 nM, respectively. Further, in series [4], the “ED50 of the 5α-reductase inhibitors activities” value is 38 ± 0.45 nM.

On to `CC(C)C1=CC2=CC3OC(=O)C4(C)CCCC(C)(C2CC1)C34` (centres unmarked) [Compound 3, Abieta-7,13-dien-18-oic acid (18→6) lactone], for which the melting point was 301 to 303 °C. In series [1] (Homo sapiens), this molecule displayed an IC50 of 112 ± 3.7 nM. This molecule returned an IC50 in series [2] of 0.91 ± 0.07 nM. Moreover, in series [3] (Homo sapiens), the midpoint of inhibition, the IC50, lay at 9.08 ± 0.08 nM. Also, the “ED50 of the 5α-reductase inhibitors activities” value in series [4] is 90 ± 0.88 nM.
